≈ marks a conversion by molar mass, not a printed value.
Key:
PAMPA permeability assay = format: in vitro ADME; conditions: % of compound found in the receiver compartment after 16 hours; PBS pH 7.4, 5% DMSO, 23° C.
Protocol: Artificial membrane permeability was determined as follows: Tested compounds were dissolved to 10 mM in 100% DMSO. Permeability of compounds was measured in PBS (pH 7.4), 5% DMSO at 23° C. Safire (Tecan) plate reader was used for measurement the UV/Vis absorption. Protocol: Dilute stocks of tested compounds and controls with PBS to 1.67 mM and mix well by pipetting, add 280 μl of PBS, 5% DMSO to acceptor plate, add 5 μl of 2% L-α-Phosphatidylcholine suspension in dodecane to the membrane of donor plate. Immediately add 98 μl of PBS to donor plate and make the sandwich with acceptor plate. Add 42 μl of tested compounds and controls dilutions to […], cover the plate, place into camera and incubate for 16 hours. Make the equilibrium plate, add 225 μl of PBS, 3.7% DMSO and 25 μl of tested compounds and controls dilutions to UV plate. After 16 hours pull the donor plate out and transfer 250 μl from acceptor plate to UV plate. Scan UV plate on Safire (Tecan) plate reader from […]. Permeability is reported in % of compound found in the receiver compartment after the incubation period. Applying this protocol, PAMPA permeabilities of examples and reference compounds were determined as follows (see Table 4): […]

[1] = molecular target: T1, human farnesoid X receptor (FXR) alpha ligand binding domain (Homo sapiens, UniProt Q96RI1); experiment: FRET activity assay (ligand mediated cofactor peptide interaction, LANCE); format: biochemical; conditions: FXR-LBD/SRC-1 peptide interaction
T1 construct: made in house; host or cells: E. coli BL21(DE3), vector pDEST15
T1 sequence (Q96RI1 187-472 isoform Q96RI1-2): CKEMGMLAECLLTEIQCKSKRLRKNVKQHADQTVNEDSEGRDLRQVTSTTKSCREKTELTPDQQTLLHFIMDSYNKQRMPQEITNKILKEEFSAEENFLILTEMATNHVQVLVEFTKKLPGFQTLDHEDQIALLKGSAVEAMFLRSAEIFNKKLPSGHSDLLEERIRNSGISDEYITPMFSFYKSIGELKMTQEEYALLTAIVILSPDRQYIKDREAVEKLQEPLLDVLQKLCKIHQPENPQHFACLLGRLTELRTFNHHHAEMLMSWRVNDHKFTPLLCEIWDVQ
Protocol: Determination of a ligand mediated cofactor peptide interaction to quantify ligand binding to the nuclear receptor Farnesoid X Receptor (FXR) was performed as follows:
Preparation of human farnesoid X receptor (FXR) alpha ligand binding domain: The human FXRalpha ligand binding domain (LBD) was expressed in E. coli strain BL21(DE3) as an N-terminally glutathione-S-transferase (GST) tagged fusion protein. The DNA encoding the FXR ligand binding domain was cloned into vector pDEST15 (Invitrogen). Expression was under control of an IPTG inducible T7 promoter. The amino acid boundaries of the ligand binding domain were amino acids 187-472 of Database entry NM_005123 (RefSeq). Expression and purification of the FXR-LBD: An overnight preculture of a transformed E. coli strain was diluted 1:20 in LB-Ampicillin medium and grown at 30° C. to an optical density of OD600=0.4-0.6. Gene expression was then induced by addition of 0.5 mM IPTG. Cells were incubated an additional 6 h at 30° C., 180 rpm. Cells were collected by centrifugation (7000×g, 7 min, room temperature). Per liter of original cell culture, cells were resuspended in 10 ml lysis buffer (50 mM Glucose, 50 mM Tris pH 7.9, 1 mM EDTA and 4 mg/ml lysozyme) and left on ice for 30 min. Cells were then subjected to sonication and cell debris removed via centrifugation (22000×g, 30 min, 4° C.). Per 10 ml of supernatant 0.5 ml prewashed Glutathione 4B sepharose slurry (Qiagen) was added and the suspension kept slowly rotating for 1 h at 4° C. Glutathione 4B sepharose beads were pelleted by centrifugation (2000 g, 15 sec, 4° C.) and washed twice in wash buffer (25 mM Tris, 50 mM KCl, 4 mM MgCl2 and 1 M NaCl). The pellet was resuspended in 3 ml elution buffer per liter of original culture (elution buffer: 20 mM Tris, 60 mM KCl, 5 mM MgCl2 and 80 mM glutathione added immediately prior to use as powder). The suspension was left rotating for 15 min at 4° C., the beads pelleted and eluted again with half the volume of elution buffer than the first time. The eluates were pooled and dialysed overnight in 20 mM Hepes buffer (pH 7.5) containing 60 mM KCl, 5 mM MgCl2 as well as 1 mM dithiothreitol and 10% (v/v) glycerol. The protein was analysed by SDS-Page.
The method measures the ability of putative ligands to modulate the interaction between the purified bacterial expressed FXR ligand binding domain (LBD) and a synthetic biotinylated peptide based on residues 676-700 of SRC-1 (LCD2, 676-700). The sequence of the peptide used was B-[…]-COOH where the N-terminus was biotinylated (B). The ligand binding domain (LBD) of FXR was expressed as fusion protein with GST in BL-21 cells using the vector pDEST15. Cells were lysed by sonication, and the fusion proteins purified over glutathione sepharose (Pharmacia) according to the manufacturers instructions. […] For ease of handling and reduction of background from compound fluorescence LANCE technology makes use of generic fluorophore labels and time resolved detection Assays were done in a final volume of 25 μl in a 384 well plate, in a Tris-based buffer (20 mM Tris-HCl pH 7.5; 60 mM KCl, 5 mM MgCl2; 35 ng/μl BSA), containing 20-60 ng/well recombinantly expressed FXR-LBD fused to GST, 200-600 nM N-terminally biotinylated peptide, representing SRC1 aminoacids 676-700, 200 ng/well Streptavidin-xIAPC conjugate (Prozyme) and 6-10 ng/well Eu W1024-antiGST (Perkin Elmer). […]

[2] = Aqueous solubility assay, Protocol A, nephelometry method; format: physicochemical; conditions: PBS with 5% DMSO, aqueous with cosolvent or surfactant or cyclodextrin, kinetic from dmso stock, PBS pH 7.4, 5% DMSO, 23° C.
Protocol: (§1) Aqueous solubility of compounds was determined by nephelometry or by shake-flask method as follows:
Protocol A, Nephelometry Method:
Solubility of compounds was measured in PBS (pH 7.4), 5% DMSO at 23° C. Nepheloskan Ascent (Thermo Electron Corporation) nephelometer was used for measurement of light scattering. Tested compounds were dissolved in DMSO to 10 mM. Prior to measurement the compounds were further diluted with PBS in the wells to final compound concentrations of 100, 70, 50, 35, 25, 17, 12 and <10 μg/ml.
The plates were incubated at room temperature for 24 hours to reach equilibrium and the scattered light was measured. Assay validation: Aqueous solubility of acetylsalicylic acid was determined to validate the assay. […] Aqueous solubilities of examples and reference compounds are listed below in Table 2.

[3] = Microsomal stability assay; format: in vitro ADME; conditions: pH 7.4; mouse liver microsomes, 37° C.
Protocol: Microsomal Stability Assay
In vitro assays were performed to evaluate the metabolic stability of test items in liver microsomes originating from mouse. Preparation of working standards of test items: Working solutions were prepared for each calibration level by appropriate dilution of the corresponding stock solution, depending on each compound's solubility in acetonitrile or acetonitrile/water. Calibration standards were prepared by spiking 196 μl standard matrix with 4 μl of the corresponding working solution. The standard matrix consists of 0.15 mg/ml of microsomal protein in phosphate buffer (100 mM pH 7.4), the final standard solutions contain 2% acetonitrile. The samples and standard solutions were extracted with ethyl acetate, isolation of the compounds was performed by addition of 600 μl ethyl acetate containing the internal standard (0.1 μM) to 200 μl sample and calibration standard. After vigorously shaking (10 minutes) and centrifugation (5000 g) the aqueous phase was separated by freezing in an acetone/dry ice bath and the organic phase is evaporated to dryness using a vacuum centrifuge. Samples were reconstituted in 200 μl acetonitrile/water mix (1:1 v/v) and subsequently subjected to LC-MS/MS. The incubation solution (180 μl) consisted of 90 μl of a microsomal suspension of 0.33 mg/ml of protein in phosphate buffer 100 mM pH 7.4 and 90 μl NADP-regenerating system. The reaction was initiated by the addition of 20 μl of test compound (in 20% acetonitrile) to the preincubated microsomes/buffer mix at 37° C. 200 μl samples were removed from the incubation after 0, 5, 10, and 30 minutes and processed for ethyl acetate extraction as described above. Negative controls using boiled microsomes (boiling water bath, 25 minutes) without regenerating system were run in parallel. The amount of compound in the samples is expressed as percentage of remaining compound compared to time point zero (=100%). These percentages were plotted against the corresponding time points. Intrinsic clearance (CLint) and half-life (t1/2) estimates were determined using the rate of parent disappearance and following formula (1) and (2). (1) CLint=(−k)×V×fu. (2) t1/2=ln 2/−k. Where CLint=intrinsic clearance [μl/min/mg protein], t1/2=half life [min], k=slope from the linear regression of log [test compound] versus time plot [1/min]. V=6666.7; fu=unbound fraction in the blood. Applying this protocol gave microsomal stabilities for examples and reference compounds as listed below in Table 6: […]

[4] = Aqueous solubility assay, Protocol B, shake-flask method; format: physicochemical; conditions: 10 mM PBS buffer with 1% MeOH, kinetic from dmso stock, 10 mM PBS buffer pH 7.4, 1% MeOH, room temperature, read-out: Aqueous solubility pH 7.4 (μM) (±standard deviation), shake-flask method
Protocol: as §1
Protocol B, Shake-Flask Method:
Sample preparation: Sample and standard solution preparation is performed by mixing equal volumes of acetonitrile containing the internal standard (1 μM final concentration) with sample and calibration standard solutions (100 μl). After vigorously shaking (10 seconds) the samples are centrifuged (6000 g) for 5 minutes at 20° C. Aliquots of the particle-free supernatants are transferred to 200 μl sample vials and subsequently subjected to LC-MS/MS analysis. Assay procedure: Test concentration was 100 μM in 10 mM PBS buffer pH 7.4 with a final MeOH concentration of 1%. The volume of the incubation solution was 500 μl. Depending on each compound's solubility in MeOH, the stock concentration and the incubation concentration was adapted. The test solutions in quadruplicates were shaken at 300 rpm over a 20 hours period at room temperature, followed by centrifugation at 20000 g for 30 minutes to separate the solid phase. 100 μl of particle free sample are added to 100 μl acetonitrile containing the internal standard. The aqueous solubility of the compounds was determined by measuring the concentration of the PBS buffer supernatant by HPLC-MS/MS. Aqueous solubilities of examples and reference compounds are listed below in Table 3.

[5] = The Merck index, 10th edition; cited from earlier work

PAMPA Permeability (PAMPA permeability assay) | EC50 [1] | Compound | other results
7% | – | CC(C)c1onc(-c2c(Cl)cccc2Cl)c1COc1ccc(/C=C/c2cccc(C(=O)O)c2)c(Cl)c1 [Compound B, reference compound] | –
54% | ≤ 1000 nM | CC(C)c1onc(-c2c(Cl)cccc2Cl)c1COc1ccc(Oc2ccc(C(=O)O)cc2)cn1 [Example 1, 4-(6-((3-(2,6-Dichlorophenyl)-5-isopropylisoxazol-4-yl)methoxy)pyridin-3-yloxy)benzoic acid] | solubility at 24 h [2]: > 200 µM
43% | ≤ 1000 nM | CC(C)c1onc(-c2c(Cl)cccc2Cl)c1COc1ccc(Oc2cccc(C(=O)O)c2)cn1 [Example 2, 3-(6-((3-(2,6-Dichlorophenyl)-5-isopropylisoxazol-4-yl)methoxy)pyridin-3-yloxy)benzoic acid] | –
– | ≤ 1000 nM | CC(C)c1onc(-c2c(Cl)cccc2Cl)c1COc1ccc(Oc2ccc(C(=O)NS(C)(=O)=O)cc2)cn1 [Example 4, 4-(6-((3-(2,6-Dichlorophenyl)-5-isopropylisoxazol-4-yl)methoxy)pyridin-3-yloxy)-N-(methylsulfonyl)benzamide] | half-life [3]: 30 min; microsomal CLint [3]: 153 µL/min/mg; melting point: 182 to 184 °C; solubility at 20 h [4]: 114 µM (≈ 65.7 µg/mL)
– | ≤ 1000 nM | CC(C)c1onc(-c2c(Cl)cccc2Cl)c1COc1ccc(Oc2ccc(C(=O)O)cc2)nn1 [Example 5, 4-(6-((3-(2,6-Dichlorophenyl)-5-isopropylisoxazol-4-yl)methoxy)pyridazin-3-yloxy)benzoic acid] | –
– | – | CC(=O)Oc1ccccc1C(=O)O [acetylsalicylic acid] | Aqueous solubility, reported literature value [5]: at least 2.17 mg/ml
